Measured values from ChEMBL document CHEMBL1201862, “PubChem BioAssay data set” (2004).
Calls of active or inactive are those of the source.

What was measured:
[1] = biological target: T1, Small ubiquitin-related modifier 1 (Homo sapiens, UniProt P63165); assay: inhibitors of SUMO1 partner interactions, dose response, biochemical, FRET (AID 624383); assay type: functional; details: read-out: IC50_Mean
[2] = biological target: T2, Carboxy-terminal domain RNA polymerase II polypeptide A small phosphatase 1 (Homo sapiens, UniProt Q9GZU7); assay: inhibitors of CTDSP1, concentration-response testing, biochemical assay, absorbance-based, actives from ultra-high-throughput screening (AID 540297); assay type: functional
T2 sequence (Q9GZU7 whole entry): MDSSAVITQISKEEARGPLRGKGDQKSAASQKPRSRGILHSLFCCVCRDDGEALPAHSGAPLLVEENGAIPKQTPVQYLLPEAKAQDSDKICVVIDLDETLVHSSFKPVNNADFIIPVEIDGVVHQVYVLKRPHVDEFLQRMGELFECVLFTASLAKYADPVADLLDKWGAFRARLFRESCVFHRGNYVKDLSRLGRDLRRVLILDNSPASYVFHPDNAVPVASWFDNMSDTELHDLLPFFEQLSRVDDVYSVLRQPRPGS

[3] = biological target: T1, Small ubiquitin-related modifier 1; assay: inhibitors of SUMO1 peptide binding, dose response, biochemical, fluorescence polarization, uHTS hits (AID 624382); assay type: functional; details: read-out: IC50_Mean
[4] = biological target: Nuclear receptor subfamily 5 group A member 2 (Homo sapiens, UniProt O00482); assay type: functional, cell-based;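 note: HEK293T cells transfected with LRH-1 and a StAR promoter luciferase reporter; potency for inhibitors that lower LRH-1 driven reporter light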
Sequence of Nuclear receptor subfamily 5 group A member 2 (O00482 whole entry): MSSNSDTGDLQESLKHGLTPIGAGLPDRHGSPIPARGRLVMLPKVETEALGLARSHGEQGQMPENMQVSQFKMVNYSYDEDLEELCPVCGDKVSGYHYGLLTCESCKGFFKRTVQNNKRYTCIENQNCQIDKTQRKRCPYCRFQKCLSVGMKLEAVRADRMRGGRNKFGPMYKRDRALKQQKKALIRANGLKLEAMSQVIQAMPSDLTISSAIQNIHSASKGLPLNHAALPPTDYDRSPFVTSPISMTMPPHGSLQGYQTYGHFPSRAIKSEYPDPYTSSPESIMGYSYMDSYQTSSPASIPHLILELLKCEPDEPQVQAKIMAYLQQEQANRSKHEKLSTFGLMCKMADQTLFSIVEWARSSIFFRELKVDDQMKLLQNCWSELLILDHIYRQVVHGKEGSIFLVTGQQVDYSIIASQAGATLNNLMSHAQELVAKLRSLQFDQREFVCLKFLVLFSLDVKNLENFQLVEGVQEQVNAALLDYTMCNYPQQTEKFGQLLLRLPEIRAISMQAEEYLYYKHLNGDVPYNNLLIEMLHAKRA

[5] = biological target: Steroidogenic factor 1 (Homo sapiens, UniProt Q13285); assay: Counterscreen for inverse agonists of the liver receptor homolog-1 (LRH-1; NR5A2): Luminescence-based cell-based high throughput dose response assay to identify inverse agonists of the Steroidogenic Factor 1 Nuclear Receptor (SF1; NR5A1).; assay type: functional
Sequence of Steroidogenic factor 1 (Q13285 whole entry): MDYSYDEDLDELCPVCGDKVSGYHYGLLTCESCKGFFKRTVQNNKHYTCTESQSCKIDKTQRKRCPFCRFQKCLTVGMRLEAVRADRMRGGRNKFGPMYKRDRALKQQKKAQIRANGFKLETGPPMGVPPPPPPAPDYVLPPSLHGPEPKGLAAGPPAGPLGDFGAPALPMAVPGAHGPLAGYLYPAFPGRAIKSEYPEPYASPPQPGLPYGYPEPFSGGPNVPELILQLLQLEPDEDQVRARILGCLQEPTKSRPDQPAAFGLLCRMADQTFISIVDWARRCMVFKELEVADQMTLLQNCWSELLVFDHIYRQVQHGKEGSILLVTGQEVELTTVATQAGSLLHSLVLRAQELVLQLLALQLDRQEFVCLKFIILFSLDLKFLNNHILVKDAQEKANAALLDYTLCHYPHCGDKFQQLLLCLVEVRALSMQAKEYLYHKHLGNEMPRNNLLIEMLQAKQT

[6] = StAR promoter reporter inhibition counter-screen, dose response, counter-screen for LRH-1 inverse agonist project, cell-based, luminescence, luciferase reporter (AID 651969); assay type: functional
[7] = system: Vero; assay: Vero cell toxicity, dose response, cytotoxicity control, plate reader, cherry-pick samples (AID 687020); assay type: functional, cell-based; details: Chlorocebus sabaeus
[8] = Counterscreen for inhibitors of Trypanosoma brucei methionyl tRNA synthetase (MetRS): Luminescence-based cell-based high throughput dose response assay to identify compounds that are cytotoxic to Jurkat human T lymphocyte cells.; assay type: functional
[9] = biological target: T3, Methionyl-tRNA synthetase, putative (Trypanosoma brucei brucei, UniProt Q38C91); assay type: functional, Trypanosoma brucei brucei strain 927/4 GUTat10.1
T3 sequence (Q38C91 whole entry): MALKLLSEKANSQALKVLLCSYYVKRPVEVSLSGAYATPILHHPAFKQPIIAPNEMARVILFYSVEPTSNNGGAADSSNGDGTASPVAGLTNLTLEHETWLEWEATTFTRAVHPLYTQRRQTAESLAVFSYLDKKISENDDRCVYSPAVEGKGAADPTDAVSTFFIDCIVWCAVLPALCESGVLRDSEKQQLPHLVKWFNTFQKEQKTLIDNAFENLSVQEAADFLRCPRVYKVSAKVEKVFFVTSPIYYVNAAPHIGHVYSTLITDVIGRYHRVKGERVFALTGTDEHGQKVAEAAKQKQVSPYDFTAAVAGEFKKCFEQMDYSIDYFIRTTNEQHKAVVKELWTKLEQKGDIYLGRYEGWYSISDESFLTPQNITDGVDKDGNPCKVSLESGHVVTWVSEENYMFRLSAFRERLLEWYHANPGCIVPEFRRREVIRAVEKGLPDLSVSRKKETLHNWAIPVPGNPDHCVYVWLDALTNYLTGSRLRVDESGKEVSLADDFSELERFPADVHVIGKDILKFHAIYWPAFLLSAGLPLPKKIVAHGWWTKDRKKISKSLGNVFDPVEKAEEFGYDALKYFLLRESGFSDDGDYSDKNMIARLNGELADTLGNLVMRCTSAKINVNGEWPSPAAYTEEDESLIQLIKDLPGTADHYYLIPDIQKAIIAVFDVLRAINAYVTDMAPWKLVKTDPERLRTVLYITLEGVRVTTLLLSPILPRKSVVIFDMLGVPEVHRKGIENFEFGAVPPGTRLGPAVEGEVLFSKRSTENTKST

[10] = biological target: T3, Methionyl-tRNA synthetase, putative; assay type: functional, Trypanosoma brucei brucei strain 927/4 GUTat10.1; remark: listed apart in the source
[11] = biological target: T4, Tyrosyl-DNA phosphodiesterase 2 (Homo sapiens, UniProt O95551); assay: human TDP2 enzyme inhibitors, dose response, biochemical, epi absorbance, IC50 (AID 743297)
T4 sequence (O95551 whole entry): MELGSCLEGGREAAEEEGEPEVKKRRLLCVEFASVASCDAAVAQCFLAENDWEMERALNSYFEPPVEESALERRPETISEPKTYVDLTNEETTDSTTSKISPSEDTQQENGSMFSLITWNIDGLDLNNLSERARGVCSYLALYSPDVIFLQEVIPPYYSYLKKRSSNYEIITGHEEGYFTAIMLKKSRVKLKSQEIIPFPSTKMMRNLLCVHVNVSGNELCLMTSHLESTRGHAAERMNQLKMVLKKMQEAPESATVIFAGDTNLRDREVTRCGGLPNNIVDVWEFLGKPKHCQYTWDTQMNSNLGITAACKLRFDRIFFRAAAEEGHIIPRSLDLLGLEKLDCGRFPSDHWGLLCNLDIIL

[12] = biological target: T5, Sentrin-specific protease 6 (Homo sapiens, UniProt Q9GZR1); assay type: functional;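 note: Luminescence-based dose-response confirmatory assay of SENP6 inhibition, following up an ultra-high-throughput screen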
T5 sequence (Q9GZR1 whole entry): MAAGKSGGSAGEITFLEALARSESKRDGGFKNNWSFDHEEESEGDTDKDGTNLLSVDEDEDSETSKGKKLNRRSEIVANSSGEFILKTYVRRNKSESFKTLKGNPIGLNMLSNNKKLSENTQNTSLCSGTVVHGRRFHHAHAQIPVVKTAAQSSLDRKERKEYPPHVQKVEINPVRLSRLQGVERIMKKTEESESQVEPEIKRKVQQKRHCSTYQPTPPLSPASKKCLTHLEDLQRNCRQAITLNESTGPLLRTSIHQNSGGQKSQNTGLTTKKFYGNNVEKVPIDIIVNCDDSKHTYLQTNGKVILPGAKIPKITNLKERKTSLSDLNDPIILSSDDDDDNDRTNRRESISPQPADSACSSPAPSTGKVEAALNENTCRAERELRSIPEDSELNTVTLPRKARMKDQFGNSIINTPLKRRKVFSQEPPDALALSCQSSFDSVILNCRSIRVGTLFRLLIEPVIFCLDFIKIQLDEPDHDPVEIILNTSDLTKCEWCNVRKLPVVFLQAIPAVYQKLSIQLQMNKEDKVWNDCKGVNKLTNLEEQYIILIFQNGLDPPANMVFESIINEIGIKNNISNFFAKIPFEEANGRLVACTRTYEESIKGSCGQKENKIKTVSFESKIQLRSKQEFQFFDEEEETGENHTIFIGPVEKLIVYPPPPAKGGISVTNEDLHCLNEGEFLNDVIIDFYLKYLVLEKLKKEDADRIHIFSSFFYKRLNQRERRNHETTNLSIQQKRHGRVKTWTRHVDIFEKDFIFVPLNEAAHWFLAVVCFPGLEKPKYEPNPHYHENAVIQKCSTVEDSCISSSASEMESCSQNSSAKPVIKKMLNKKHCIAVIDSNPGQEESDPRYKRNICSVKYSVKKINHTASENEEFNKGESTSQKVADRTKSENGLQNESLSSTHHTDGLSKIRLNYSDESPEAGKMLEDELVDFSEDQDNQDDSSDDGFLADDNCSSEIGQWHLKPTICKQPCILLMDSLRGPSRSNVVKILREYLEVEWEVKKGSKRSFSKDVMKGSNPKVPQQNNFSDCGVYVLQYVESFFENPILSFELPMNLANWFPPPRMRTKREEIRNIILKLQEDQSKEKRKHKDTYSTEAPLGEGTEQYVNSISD

[13] = biological target: T6, Sentrin-specific protease 7 (Homo sapiens, UniProt Q9BQF6); assay type: functional;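 note: Luminescence-based dose-response confirmation of ultra-high-throughput screening hits, measuring inhibition of SENP7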
T6 sequence (Q9BQF6 whole entry): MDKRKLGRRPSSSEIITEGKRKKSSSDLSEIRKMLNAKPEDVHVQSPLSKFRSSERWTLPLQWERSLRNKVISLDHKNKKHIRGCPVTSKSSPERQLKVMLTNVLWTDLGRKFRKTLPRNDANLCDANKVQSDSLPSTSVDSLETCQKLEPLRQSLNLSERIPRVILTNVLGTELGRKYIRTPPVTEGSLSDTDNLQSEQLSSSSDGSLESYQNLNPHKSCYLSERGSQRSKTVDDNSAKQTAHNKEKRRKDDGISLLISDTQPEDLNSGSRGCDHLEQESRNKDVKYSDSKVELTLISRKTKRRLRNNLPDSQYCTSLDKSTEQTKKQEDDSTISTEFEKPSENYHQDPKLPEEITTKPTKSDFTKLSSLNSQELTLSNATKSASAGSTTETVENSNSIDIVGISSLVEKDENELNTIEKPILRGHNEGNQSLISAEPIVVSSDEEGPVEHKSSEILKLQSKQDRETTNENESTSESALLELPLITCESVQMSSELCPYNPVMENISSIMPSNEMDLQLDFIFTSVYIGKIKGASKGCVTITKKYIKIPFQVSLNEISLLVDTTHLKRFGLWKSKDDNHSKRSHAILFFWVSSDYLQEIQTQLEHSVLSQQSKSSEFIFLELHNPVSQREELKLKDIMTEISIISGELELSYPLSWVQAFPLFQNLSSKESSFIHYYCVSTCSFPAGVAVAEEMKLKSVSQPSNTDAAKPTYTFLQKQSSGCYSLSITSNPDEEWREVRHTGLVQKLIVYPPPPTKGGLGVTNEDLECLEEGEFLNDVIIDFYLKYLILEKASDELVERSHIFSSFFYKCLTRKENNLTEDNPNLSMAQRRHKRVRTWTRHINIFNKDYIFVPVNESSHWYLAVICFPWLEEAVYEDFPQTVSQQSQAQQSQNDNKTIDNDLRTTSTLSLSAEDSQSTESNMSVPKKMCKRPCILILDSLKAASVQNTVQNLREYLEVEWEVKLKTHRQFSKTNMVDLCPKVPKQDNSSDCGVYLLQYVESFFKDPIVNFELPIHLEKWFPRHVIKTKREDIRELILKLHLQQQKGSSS

[14] = biological target: T7, Caspase-6 (Homo sapiens, UniProt P55212); assay: human caspase-6 inhibitors, dose response, biochemical, VEID-R110 fluorescence, cherry-pick (AID 720632)
T7 sequence (P55212 whole entry): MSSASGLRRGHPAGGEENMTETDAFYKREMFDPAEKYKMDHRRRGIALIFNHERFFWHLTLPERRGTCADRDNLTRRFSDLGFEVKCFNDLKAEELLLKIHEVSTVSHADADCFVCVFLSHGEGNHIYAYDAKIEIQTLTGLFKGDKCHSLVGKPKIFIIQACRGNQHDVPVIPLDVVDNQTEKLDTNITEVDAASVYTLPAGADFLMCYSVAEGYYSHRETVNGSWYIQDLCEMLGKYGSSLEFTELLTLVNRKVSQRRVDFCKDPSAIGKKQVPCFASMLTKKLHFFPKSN

[15] = biological target: T8, Sentrin-specific protease 8 (Homo sapiens, UniProt Q96LD8); assay type: functional;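 note: luminescence read-out of SENP8 inhibition, dose-response confirmation following an ultra-high-throughput screen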
T8 sequence (Q96LD8 whole entry): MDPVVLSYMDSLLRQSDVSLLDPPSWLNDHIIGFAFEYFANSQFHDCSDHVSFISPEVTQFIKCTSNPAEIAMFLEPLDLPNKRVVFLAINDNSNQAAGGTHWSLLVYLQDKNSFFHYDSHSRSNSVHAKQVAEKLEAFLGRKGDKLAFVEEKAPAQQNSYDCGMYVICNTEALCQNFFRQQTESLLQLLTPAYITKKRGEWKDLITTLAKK

[16] = biological target: T9, Mitochondrial peptide methionine sulfoxide reductase (Bos taurus, UniProt P54149); assay: Absorbance-based biochemical high throughput dose response assay for activators of Methionine sulfoxide reductase A (MsrA).; assay type: functional
T9 sequence (P54149 whole entry): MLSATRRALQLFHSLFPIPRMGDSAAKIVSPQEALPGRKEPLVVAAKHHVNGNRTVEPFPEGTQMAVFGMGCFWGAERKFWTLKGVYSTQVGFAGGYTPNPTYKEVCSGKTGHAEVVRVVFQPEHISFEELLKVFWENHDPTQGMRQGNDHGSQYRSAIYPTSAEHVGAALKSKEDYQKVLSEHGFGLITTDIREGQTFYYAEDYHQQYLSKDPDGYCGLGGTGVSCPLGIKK

[17] = biological target: T10, Caspase-3 (Homo sapiens, UniProt P42574); assay type: functional;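 note: Dose-response selectivity test against caspase-3 for candidate inhibitors of sentrin-specific proteases (SENPs)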
T10 sequence (P42574 whole entry): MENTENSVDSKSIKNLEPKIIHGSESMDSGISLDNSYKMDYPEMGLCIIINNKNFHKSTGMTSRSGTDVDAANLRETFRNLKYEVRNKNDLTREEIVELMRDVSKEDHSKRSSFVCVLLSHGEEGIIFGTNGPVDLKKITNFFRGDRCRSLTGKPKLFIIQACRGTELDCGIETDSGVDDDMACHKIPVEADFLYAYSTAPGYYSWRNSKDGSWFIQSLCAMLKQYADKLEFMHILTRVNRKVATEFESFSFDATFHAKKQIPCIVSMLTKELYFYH

T1 sequence (P63165 whole entry, the tested form may be a part): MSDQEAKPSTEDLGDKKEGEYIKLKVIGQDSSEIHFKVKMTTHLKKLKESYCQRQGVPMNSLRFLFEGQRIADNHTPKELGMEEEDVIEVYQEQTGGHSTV

## COc1ccc(Nc2nnc(-c3ccncc3)s2)cc1Cl
[1]
  IC50: 6.3 µM (active)
[2]
  IC50: 4.85 µM (active)
[3]
  IC50: > 66.6 µM (inactive)

## COCC(=O)NC1CCN(CC(=O)Nc2ccc(OC)cc2[N+](=O)[O-])CC1
[4]
  IC50: 3.9 µM (active)
[5]
  IC50: 1.37 µM (active)
[6]
  IC50: 35.9 µM (inactive)

## CCN1CCN(S(=O)(=O)c2ccc(Cl)c(C(=O)N(C)CCOc3ccc(Cl)cc3)c2)CC1
[7]
  AC50: 21.1 µM (active)

## COc1ccc(S(=O)(=O)Nc2ccc3c(c2)n(C)c(=O)n3C)cc1F
[4]
  IC50: 8.04 µM (active)
[5]
  IC50: 9.64 µM (active)
[6]
  IC50: 34.5 µM (inactive)

## O=C(CSc1nc2ccc[nH]c-2n1)Nc1ccc2c(c1)OCO2
[8]
  IC50: 83.3 µM (inactive)

## O=C(CSc1nc2ncccc2[nH]1)Nc1ccc2c(c1)OCO2
[9]
  IC50: 81.6 µM (inactive)
[10]
  IC50: 30.3 µM (inactive)

## CC1CCCC(NC(=O)COC(=O)c2ccc([N+](=O)[O-])s2)C1C (centres undefined)
[11]
  IC50: 85.5 µM (inactive)
[12]
  IC50: 6.5 µM (active)
[13]
  IC50: 8.12 µM (active)
[14]
  AC50: 8.44 µM (active)
[15]
  IC50: 5.63 µM (active)
[16]
  EC50: 22.9 µM (inactive)
[17]
  IC50: 13.7 µM (active)

## COc1ccc(N2CCN(c3cc(C(=O)NC4CCCCC4)ncn3)CC2)cc1OC
[7]
  AC50: 29.7 µM (active)

## O=C(NCc1nc2ccccc2[nH]1)C1=C[C@H](C2CCCCC2)C[C@H](OCCCCO)O1
[8]
  IC50: 28.8 µM (inactive)
[9]
  IC50: 5.64 µM (active)
[10]
  IC50: 3.14 µM (active)
